In PubChem BioAssay (NCI):
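Protocol summary: plate cells (96-well), add compound at 5 concentrations, incubate 48 h, interpolate endpoints linearly. Definition used: TGI = concentration required for complete inhibition of growth.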

Columns and labels:
Test in all cases: DTP human tumour cell line panel, 48 h
DLD-1 colon = test system: DLD-1 colon
M19-MEL melanoma = test system: M19-MEL melanoma
SK-MEL-5 melanoma = test system: SK-MEL-5 melanoma
UACC-257 melanoma = test system: UACC-257 melanoma
OVCAR-4 ovarian = test system: OVCAR-4 ovarian
SK-MEL-28 melanoma = test system: SK-MEL-28 melanoma
NCI-H460 lung = test system: NCI-H460 lung
RXF 393 renal = test system: RXF 393 renal
HCT-116 colon = test system: HCT-116 colon
SN12C renal = test system: SN12C renal
ACHN renal = test system: ACHN renal
IGROV1 ovarian = test system: IGROV1 ovarian
HOP-92 NSCLC = test system: HOP-92 NSCLC
XF 498 CNS = test system: XF 498 CNS
A549 NSCLC = test system: A549 NSCLC
KM20L2 colon = test system: KM20L2 colon
COLO 205 colon = test system: COLO 205 colon
LXFL 529 NSCLC = test system: LXFL 529 NSCLC
OVCAR-8 ovarian = test system: OVCAR-8 ovarian
HCC-2998 colon = test system: HCC-2998 colon
KM12 colon = test system: KM12 colon
RXF-631 renal = test system: RXF-631 renal
HL-60(TB) leukemia = test system: HL-60(TB) leukemia
HOP-62 NSCLC = test system: HOP-62 NSCLC
SF-295 CNS = test system: SF-295 CNS
HCT-15 colon = test system: HCT-15 colon
DMS 273 small cell lung = test system: DMS 273 small cell lung
SNB-19 CNS = test system: SNB-19 CNS
CCRF-CEM leukemia = test system: CCRF-CEM leukemia
SNB-75 CNS = test system: SNB-75 CNS
SK-MEL-2 melanoma = test system: SK-MEL-2 melanoma
SF-539 CNS = test system: SF-539 CNS
MALME-3M melanoma = test system: MALME-3M melanoma
RPMI-8226 leukemia = test system: RPMI-8226 leukemia
K-562 leukemia = test system: K-562 leukemia
TK-10 renal = test system: TK-10 renal
SF-268 CNS = test system: SF-268 CNS
HT29 colon = test system: HT29 colon
SNB-78 CNS = test system: SNB-78 CNS
MOLT-4 leukemia = test system: MOLT-4 leukemia
UO-31 renal = test system: UO-31 renal
NCI-H522 lung = test system: NCI-H522 lung
SW-620 colon = test system: SW-620 colon
OVCAR-3 ovarian = test system: OVCAR-3 ovarian
EKVX NSCLC = test system: EKVX NSCLC
NCI-H23 lung = test system: NCI-H23 lung
UACC-62 melanoma = test system: UACC-62 melanoma
786-0 renal = test system: 786-0 renal
OVCAR-5 ovarian = test system: OVCAR-5 ovarian
U251 CNS = test system: U251 CNS
M14 melanoma = test system: M14 melanoma
SK-OV-3 ovarian = test system: SK-OV-3 ovarian
A498 renal = test system: A498 renal
LOX IMVI melanoma = test system: LOX IMVI melanoma
DMS 114 small cell lung = test system: DMS 114 small cell lung

Structure (SMILES): O=C1CCC(=O)N1CNc1cccc(NCN2C(=O)CCC2=O)c1
- TGI (DLD-1 colon): > 100 µM
- TGI (M19-MEL melanoma): > 100 µM
- TGI (SK-MEL-5 melanoma): > 100 µM
- TGI (UACC-257 melanoma): > 100 µM
- TGI (OVCAR-4 ovarian): > 100 µM
- TGI (SK-MEL-28 melanoma): > 100 µM
- TGI (NCI-H460 lung): > 100 µM
- TGI (RXF 393 renal): > 100 µM
- TGI (HCT-116 colon): > 100 µM
- TGI (SN12C renal): > 100 µM
- TGI (ACHN renal): > 100 µM
- TGI (IGROV1 ovarian): > 100 µM
- TGI (HOP-92 NSCLC): > 100 µM
- TGI (XF 498 CNS): > 100 µM
- TGI (A549 NSCLC): > 100 µM
- TGI (KM20L2 colon): 28.4 µM
- TGI (COLO 205 colon): > 100 µM
- TGI (LXFL 529 NSCLC): > 100 µM
- TGI (OVCAR-8 ovarian): > 100 µM
- TGI (HCC-2998 colon): > 100 µM
- TGI (KM12 colon): > 100 µM
- TGI (RXF-631 renal): > 100 µM
- TGI (HL-60(TB) leukemia): 49.8 µM
- TGI (HOP-62 NSCLC): > 100 µM
- TGI (SF-295 CNS): > 100 µM
- TGI (HCT-15 colon): > 100 µM
- TGI (DMS 273 small cell lung): > 100 µM
- TGI (SNB-19 CNS): > 100 µM
- TGI (CCRF-CEM leukemia): > 100 µM
- TGI (SNB-75 CNS): > 100 µM
- TGI (SK-MEL-2 melanoma): > 100 µM
- TGI (SF-539 CNS): > 100 µM
- TGI (MALME-3M melanoma): > 100 µM
- TGI (RPMI-8226 leukemia): 46.1 µM
- TGI (K-562 leukemia): > 100 µM
- TGI (TK-10 renal): > 100 µM
- TGI (SF-268 CNS): > 100 µM
- TGI (HT29 colon): > 100 µM
- TGI (SNB-78 CNS): > 100 µM
- TGI (MOLT-4 leukemia): > 100 µM
- TGI (UO-31 renal): > 100 µM
- TGI (NCI-H522 lung): > 100 µM
- TGI (SW-620 colon): > 100 µM
- TGI (OVCAR-3 ovarian): > 100 µM
- TGI (EKVX NSCLC): > 100 µM
- TGI (NCI-H23 lung): > 100 µM
- TGI (UACC-62 melanoma): > 100 µM
- TGI (786-0 renal): > 100 µM
- TGI (OVCAR-5 ovarian): > 100 µM
- TGI (U251 CNS): > 100 µM
- TGI (M14 melanoma): > 100 µM

Structure (SMILES): CC(O)C(C(=O)O)N(CC1(O)OCC(O)C(O)C1O)N=O (centres undefined)
- TGI (DLD-1 colon): > 100 µM
- TGI (M19-MEL melanoma): > 100 µM
- TGI (UACC-257 melanoma): > 100 µM
- TGI (SK-MEL-28 melanoma): > 100 µM
- TGI (SK-OV-3 ovarian): > 100 µM
- TGI (NCI-H460 lung): > 100 µM
- TGI (RXF 393 renal): > 100 µM
- TGI (HCT-116 colon): > 100 µM
- TGI (ACHN renal): > 100 µM
- TGI (IGROV1 ovarian): > 100 µM
- TGI (HOP-92 NSCLC): > 100 µM
- TGI (XF 498 CNS): > 100 µM
- TGI (A498 renal): > 100 µM
- TGI (A549 NSCLC): > 100 µM
- TGI (KM20L2 colon): > 100 µM
- TGI (COLO 205 colon): > 100 µM
- TGI (LXFL 529 NSCLC): > 100 µM
- TGI (OVCAR-8 ovarian): > 100 µM
- TGI (HCC-2998 colon): > 100 µM
- TGI (LOX IMVI melanoma): > 100 µM
- TGI (KM12 colon): > 100 µM
- TGI (RXF-631 renal): > 100 µM
- TGI (HL-60(TB) leukemia): > 100 µM
- TGI (HOP-62 NSCLC): > 100 µM
- TGI (DMS 273 small cell lung): > 100 µM
- TGI (CCRF-CEM leukemia): > 100 µM
- TGI (SNB-75 CNS): > 100 µM
- TGI (SK-MEL-2 melanoma): > 100 µM
- TGI (SF-539 CNS): > 100 µM
- TGI (MALME-3M melanoma): > 100 µM
- TGI (RPMI-8226 leukemia): > 100 µM
- TGI (K-562 leukemia): > 100 µM
- TGI (TK-10 renal): > 100 µM
- TGI (HT29 colon): > 100 µM
- TGI (SNB-78 CNS): > 100 µM
- TGI (MOLT-4 leukemia): > 100 µM
- TGI (UO-31 renal): > 100 µM
- TGI (NCI-H522 lung): > 100 µM
- TGI (SW-620 colon): > 100 µM
- TGI (OVCAR-3 ovarian): > 100 µM
- TGI (DMS 114 small cell lung): > 100 µM
- TGI (EKVX NSCLC): > 100 µM
- TGI (NCI-H23 lung): > 100 µM
- TGI (UACC-62 melanoma): > 100 µM
- TGI (786-0 renal): > 100 µM
- TGI (OVCAR-5 ovarian): > 100 µM
- TGI (U251 CNS): > 100 µM
- TGI (M14 melanoma): > 100 µM
